Data on four compounds can be found in patent US20100279995A1, “Novel Ansamycin Derivatives” (priority 2005, published 2010).

Data set [1] can be described thus: Cleavage assay in phosphate buffer. In kind it is physicochemical. The settings on record: cleavage to 18,21-dihydromacbecin. As for the experimental part: (§1) Cleavage Assays for Pro-Drugs of 18,21-dihydromacbecin
(§2) Assays to determine the rate of cleavage of the pro-drugs into their parent compounds were performed as described herein. These were carried out in plasma, blood or buffer. Mixed mouse, human or mixed rat plasma containing EDTA or heparin as an anti-coagulant was used or whole defibrinated rabbit blood (mouse and rat plasma and rabbit blood were obtained from Harlan-Sera Labs, human plasma was obtained from Biopredic International).
The stability of the test compounds in phosphate-buffered saline (PBS) of specific pH over the course of each experiment was also analysed using the same methodology.
After the final time point was sampled, the samples were extracted as follows. For each time point sample an Oasis MCX (3 cc/60 mg) or Oasis HLB (333/60 mg) cartridge was conditioned and equilibrated with 2 mL methanol followed by 2 mL water. 1.5 mL water and an internal standard (IS) at 0.002 mg/mL were added to each 0.4 mL plasma sample. This was loaded to the cartridge. The cartridge was washed with 2 mL water and the analytes were eluted in 2 ml MeOH. This extract was analysed without further treatment by LC/MS using the conditions described below.
The cleavage of compounds 1-3 was also measured in phosphate buffer as described in the General Methods—Cleavage Assay above at pH 7.2 and pH 7.4 and T1/2 values calculated as indicated in Table 5 below.

Data set [2] can be described thus: Cleavage assay in whole defibrinated rabbit blood. In kind it is in vitro ADME. As for the experimental part: as §1, §2
If using whole blood such as defibrinated whole rabbit blood the following protocol was used: The blood was thawed at 37° C. in a water bath. Blood was dispensed into individual 20 mL tubes for each test compound allowing 0.5 mL for each time point to be analysed. A tube containing blood was also included as a control. These tubes were incubated for 15 minutes at 37° C.
Each test compound was reconstituted in DMSO or other appropriate solvent. The blood was removed from the water bath and the compound was added to give a final concentration of 0.001-0.010 mg/mL keeping the final concentration of solvent below 5%. In the case of the control, an equivalent volume of DMSO or other solvent was added. Immediately after the addition of compound a 0.4 mL sample was taken from the tube, transferred to a 2 mL microfuge tube. The plasma was promptly returned to the 37° C. water bath. 0.4 mL samples were taken at regular time points (e.g. after 30 min and then hourly) and were immediately frozen at −80° C. To each 0.4 mL sample in its 2 mL microfuge tube was added 1.5 mL of 0.1 M potassium dihydrogen phosphate, this was inverted to mix. A stable internal standard (IS) in acetonitrile was added at 0.002 mg/mL. This was agitated for 5 min on an IKA shaker at 1500 rpm. Centrifugation at 5000 rpm for 5 min lead to a dense pellet made up of red blood cells and precipitated protein, and a pink/red supernatant. An Oasis HLB (333/60 mg) cartridge was equilibrated with 2 mL of methanol followed by 2 mL of water. […]
The HPLC conditions were: 10% B for 1 min followed by a linear gradient to 100% B over a period of 7 min and an isocratic period of 2 min at 100% B. The analytes were detected by UV absorbance at 255 nm and mass spectrometry using a Bruker Daltonics Esquire 3000+ mass spectrometer coupled to the HPLC. The analytes were quantified based on the extracted ion chromatogram. To ensure a reliable quantification, the linear response of the mass spectrometer was checked for the concentration range of interest.
Each compound was assessed for cleavage to 18,21-dihydromacbecin as follows. […] The samples were applied to a cartridge described above and analysed immediately using Analysis Method C.

The next data set has as its system PRXF DU-145 xenografts. In words: In vivo evaluation of antitumor efficacy in PRXF DU-145 xenografts. The arrangement: species or system nude mice. Particulars: 60 mg/kg/d i.p. on Days 0-4, 7-11, 14-18, 21, 24, 25, 28 and 29; recorded on day 31; p<0.001 vs vehicle control.
A further data set deals with Reverse transcriptase. Particulars: Ono et al., 1982; cited from earlier work.
For data set [3], the target named is terminal deoxynucleotidyl transferase (Homo sapiens, UniProt P04053). Particulars: Ono et al., 1982; cited from earlier work.
terminal deoxynucleotidyl transferase, sequence (P04053 whole entry, species assumed): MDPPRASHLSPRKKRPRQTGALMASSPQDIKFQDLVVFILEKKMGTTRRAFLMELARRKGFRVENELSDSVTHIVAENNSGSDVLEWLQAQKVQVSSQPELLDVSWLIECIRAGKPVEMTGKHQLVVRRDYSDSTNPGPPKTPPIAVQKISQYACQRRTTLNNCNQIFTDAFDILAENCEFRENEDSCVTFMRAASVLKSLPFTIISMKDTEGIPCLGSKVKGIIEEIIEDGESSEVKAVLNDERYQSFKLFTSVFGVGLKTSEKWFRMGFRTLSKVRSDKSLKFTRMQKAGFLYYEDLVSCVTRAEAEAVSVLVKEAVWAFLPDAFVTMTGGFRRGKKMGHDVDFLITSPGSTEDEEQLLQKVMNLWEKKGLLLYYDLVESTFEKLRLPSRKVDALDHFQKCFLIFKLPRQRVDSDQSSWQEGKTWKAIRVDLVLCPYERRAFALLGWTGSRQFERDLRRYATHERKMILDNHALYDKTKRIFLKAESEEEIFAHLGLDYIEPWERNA
The subject of the next data set is MDA-MB-231. In words: Monolayer proliferation assay (modified propidium iodide). In kind it is cell-based, human. The settings on record: MDA231, 4 days exposure. From the text: (§3) In vitro evaluation of compounds for anticancer activity in a panel of 12 human tumour cell lines in a monolayer proliferation assay may be carried out at the Oncotest Testing Facility, Institute for Experimental Oncology, Oncotest GmbH, Freiburg.
(§4) The Oncotest cell lines were established from human tumor xenografts as described by Roth et al., (1999). The origin of the donor xenografts is described by Fiebig et al., (1999). Other cell lines were either obtained from the NCI (H460, SF-268, OVCAR-3, DU145, MDA-MB-231, MDA-MB-468) or purchased from DSMZ, Braunschweig, Germany (LNCAP).
(§5) All cell lines, unless otherwise specified, were grown at 37° C. in a humidified atmosphere (95% air, 5% CO2) in a ‘ready-mix’ medium containing RPMI 1640 medium, 10% fetal calf serum, and 0.1 mg/mL gentamicin (PAA, Cölbe, Germany).
(§6) A modified propidium iodide assay was used to assess the effects of the test compound(s) on the growth of twelve human tumour cell lines (Dengler et al., (1995)).
(§7) Briefly, cells were harvested from exponential phase cultures by trypsinization, counted and plated in 96 well flat-bottomed microtitre plates at a cell density dependent on the cell line (5-10.000 viable cells/well). After 24 h recovery to allow the cells to resume exponential growth, 0.010 mL of culture medium (6 control wells per plate) or culture medium containing macbecin was added to the wells. Each concentration was plated in triplicate. Compounds were applied in two concentrations (0.001 mM and 0.01 mM). Following 4 days of continuous exposure, cell culture medium with or without test compound is replaced by 0.2 mL of an aqueous propidium iodide (PI) solution (7 mg/L). To measure the proportion of living cells, cells are permeabilized by freezing the plates. After thawing the plates, fluorescence was measured using the Cytofluor 4000 microplate reader (excitation 530 nm, emission 620 nm), giving a direct relationship to the total number of viable cells.
(§8) Growth inhibition is expressed as treated/control×100 (% T/C).
(§9) In vitro evaluation of macbecin for anticancer activity in a panel of 12 human tumor cell lines in a monolayer proliferation assay was carried out as described in the general methods using a modified propidium iodide assay.

The next data set relates to SF-268. Described as above. In kind it is cell-based, human. The settings on record: SF268, 4 days exposure.
Excerpt: as §3, §4, §5, §6, §7, §8, §9

For a further data set, the system named is DU145. The data set is described as above. In kind it is cell-based, human. Particulars: 4 days exposure.
Excerpt: as §3, §4, §5, §6, §7, §8, §9

A further data set concerns OVCAR-3. The description is as above. The settings on record: OVCAR3, 4 days exposure. Format: cell-based, human.
Excerpt: as §3, §4, §5, §6, §7, §8, §9

Another data set deals with UXF 1138L. The data set is described as above. Format: cell-based, human. Particulars: 4 days exposure.
Excerpt: as §3, §4, §5, §6, §7, §8, §9

Another data set has as its system MCF-7. The data set is described as above. Format: cell-based, human. The settings on record: MCF7, 4 days exposure.
Excerpt: as §3, §4, §5, §6, §7, §8, §9

In another data set the test system is MEXF 394NL. The description is as above. Particulars: 4 days exposure. In kind it is cell-based, human.
Excerpt: as §3, §4, §5, §6, §7, §8, §9

In a further data set the test system is MDA-MB-468. Described as above. In kind it is cell-based, human. Particulars: MDA468, 4 days exposure.
Excerpt: as §3, §4, §5, §6, §7, §8, §9

The next data set concerns GXF 251L. The data set is described as above. Particulars: 4 days exposure. Format: cell-based, human.
Excerpt: as §3, §4, §5, §6, §7, §8, §9

For a further data set, the system named is A498. The description is as above. Format: cell-based, human. Particulars: 4 days exposure.
Excerpt: as §3, §4, §5, §6, §7, §8, §9

The next data set relates to LNCAP. Described as above. Format: cell-based, human. The settings on record: 4 days exposure.
Excerpt: as §3, §4, §5, §6, §7, §8, §9

The test system of another data set is NCI-H460. The description is as above. The settings on record: 4 days exposure. In kind it is cell-based, human.
Excerpt: as §3, §4, §5, §6, §7, §8, §9

The mark [4] stands for this setting: Phosphate Buffer pH 7.2 (37° C.).
Where [5] appears, read: Phosphate Buffer pH 7.4 (37° C.).
The mark [6] stands for this setting: Rabbit blood pH 7.3 (37° C.) Run 1.

In the case of “18-O—(N,N′-diethylethylenediamine-N′-carbamoyl)-18,21-dihydromacbecin Hydrochloride Salt [Compound 3]”, the figures for the t1/2 in [1] (setting [4]), in data set [1] (setting [5]) and in data set [2] (setting [6]) were 4.6 h, 2.67 h and 2.67 h, respectively.

For “18-O—(N,N′-dimethylethylenediamine-N′-carbamoyl)-18,21-dihydromacbecin Hydrochloride Salt [Compound 1]”, the “minimum T/C value” in the data set with PRXF DU-145 xenografts is 24.3%. Moreover, the t1/2 in [1] (setting [4]) was found to be 1.07 h; in data set [1] (setting [5]) it was 0.817 h; in [2] (setting [6]), 0.75 h; in data set [2] (Rabbit blood pH 7.3 (37° C.) Run 2), 0.817 h.

For the compound `CNCCNC(=O)Oc1cc2c(O)c(c1)C(OC)C(C)CC(OC)C(OC)C(C)C=C(C)C(OC(N)=O)C(C)C=CC=C(C)C(=O)N2.Cl` (stereo not shown) [Compound 2, 18-O—(N-methylethylenediamine-N′-carbamoyl)-18,21-dihydromacbecin Hydrochloride Salt], the t1/2 in [1] (setting [4]) amounted to 10.4 h; in data set [1] (setting [5]), 2.12 h; in data set [2] (setting [6]), 2.55 h.

On to `CO[C@H]1[C@@H](OC)C[C@H](C)[C@@H](OC)C2=CC(=O)C=C(NC(=O)/C(C)=C/C=C\[C@@H](C)[C@@H](OC(N)=O)/C(C)=C/[C@@H]1C)C2=O` [macbecin], for which the “Reverse transcriptase activity inhibition” value with Reverse transcriptase is “not inhibited”. Moreover, the “terminal deoxynucleotidyl transferase activity inhibition” value in data set [3] is given as “not inhibited”. Besides, the “Test/Control (%) at drug concentration” value in the data set with MDA-MB-231 (1 × 10−5 M) stood at 34%; in the data set on MDA-MB-231 (1 × 10−6 M), 88%; in the data set with SF-268 (1 × 10−5 M), 20.5%; in the data set on SF-268 (1 × 10−6 M), 95.5%; with DU145 (1 × 10−5 M), 14.5%; in the data set with DU145 (1 × 10−6 M), 42%. Also, the “Test/Control (%) at drug concentration” value with OVCAR-3 (1 × 10−5 M) was 37.5%; with OVCAR-3 (1 × 10−6 M) it was 71%; in the data set on UXF 1138L (1 × 10−5 M), 19%; with UXF 1138L (1 × 10−6 M) it was 75.5%; with MCF-7 (1 × 10−5 M), 12%; with MCF-7 (1 × 10−6 M), 35.5%. For the same compound, the “Test/Control (%) at drug concentration” value in the data set with MEXF 394NL (1 × 10−5 M) was determined as 17%; in the data set with MEXF 394NL (1 × 10−6 M), 21%; in the data set with MDA-MB-468 (1 × 10−5 M) it was 4%; in the data set with MDA-MB-468 (1 × 10−6 M), 14.5%; in the data set with GXF 251L (1 × 10−5 M), 37%; in the data set with GXF 251L (1 × 10−6 M) it was 61%. Besides, the “Test/Control (%) at drug concentration” value in the data set on A498 (1 × 10−5 M) is listed as 82%; in the data set with A498 (1 × 10−6 M), 107.5%; in the data set on LNCAP (1 × 10−5 M) it was 27.5%; in the data set with LNCAP (1 × 10−6 M) it was 43.5%; in the data set with NCI-H460 (1 × 10−5 M), 21.5%; in the data set with NCI-H460 (1 × 10−6 M), 110%.
